The record followed here is US20250136570A1 (Tango Therapeutics, Inc., priority 2021, published 2025).

The target in one assay is Recombinant HDAC1 (Homo sapiens (Human), UniProt Q13547). The experiment in a line: HDAC1 inhibition, Fluor de Lys fluorescent enzyme assay. Format: biochemical. To be noted: 3 hours pre-incubation at room temp; 6 nM enzyme; 16 μM Fluor de Lys substrate; duplicate. A digest of the protocol:
(§1)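 Enzyme (HDAC1 6 nM, HDAC3/NCor2 1.2 nM final) pre-incubated with compound 3 h at ~22 °C in Tris pH 8 buffer with 0.01% BSA. Reaction run 1 h with 16 μM Fluor de Lys substrate and stopped with TSA-containing developer. Fluorescence read at Ex 360/Em 460; IC50 from an occupancy equation with Hill coefficient, in duplicate.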

The target of a further assay is HDAC3/NCor2 (Homo sapiens (Human), UniProt O15379). The experiment in a line: HDAC3 inhibition, Fluor de Lys fluorescent enzyme assay. It is filed as biochemical. Conditions: 3 hours pre-incubation at room temp; 1.2 nM enzyme; 16 μM Fluor de Lys substrate; duplicate. A digest of the protocol:
as §1

Chain of Recombinant HDAC1 (Q13547 whole entry): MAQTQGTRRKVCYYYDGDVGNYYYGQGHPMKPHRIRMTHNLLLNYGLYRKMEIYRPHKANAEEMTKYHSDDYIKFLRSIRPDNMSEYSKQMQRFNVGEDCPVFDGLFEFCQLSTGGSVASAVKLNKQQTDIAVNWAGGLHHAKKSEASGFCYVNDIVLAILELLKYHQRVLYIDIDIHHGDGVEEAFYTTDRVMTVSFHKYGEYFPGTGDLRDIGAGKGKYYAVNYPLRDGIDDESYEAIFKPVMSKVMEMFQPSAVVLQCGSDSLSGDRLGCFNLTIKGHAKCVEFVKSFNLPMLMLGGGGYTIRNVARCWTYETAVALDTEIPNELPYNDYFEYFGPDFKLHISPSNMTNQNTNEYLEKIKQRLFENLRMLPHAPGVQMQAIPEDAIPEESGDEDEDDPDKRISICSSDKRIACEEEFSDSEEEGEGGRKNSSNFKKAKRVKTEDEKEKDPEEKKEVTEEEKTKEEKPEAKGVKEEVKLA
Chain of HDAC3/NCor2 (O15379 whole entry): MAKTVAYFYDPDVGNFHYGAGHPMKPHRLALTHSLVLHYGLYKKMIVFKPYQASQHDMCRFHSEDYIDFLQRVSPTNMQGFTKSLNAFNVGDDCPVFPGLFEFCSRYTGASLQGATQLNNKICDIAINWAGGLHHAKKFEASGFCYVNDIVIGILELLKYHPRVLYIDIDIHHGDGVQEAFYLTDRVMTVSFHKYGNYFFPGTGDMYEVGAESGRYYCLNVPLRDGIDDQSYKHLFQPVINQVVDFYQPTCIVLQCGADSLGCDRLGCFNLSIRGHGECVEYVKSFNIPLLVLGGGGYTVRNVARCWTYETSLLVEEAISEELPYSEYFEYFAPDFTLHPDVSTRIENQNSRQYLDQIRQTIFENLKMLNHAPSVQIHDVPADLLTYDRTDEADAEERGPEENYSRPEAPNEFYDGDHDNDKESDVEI
Chain of HDAC3/NCor2 (Q9Y618 395-489 partner): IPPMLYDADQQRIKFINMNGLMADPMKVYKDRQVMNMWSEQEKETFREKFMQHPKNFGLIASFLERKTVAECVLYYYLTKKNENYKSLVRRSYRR

Broadly, the IC50 is the concentration that gives 50% inhibition. `CS(=N)(=O)Cc1ccc2oc(C(=O)Nc3cc(-c4ccc(F)cc4)ccc3N)cc2c1` (stereo not drawn) [Compound 170, N-[2-amino-5-(4-fluorophenyl)phenyl]-5-[(methylsulfonimidoyl)methyl]benzofuran-2-carboxamide]: the results for the IC50 at Recombinant HDAC1 and against HDAC3/NCor2 were under 100 nM and 500 to 2000 nM, respectively.
Consider `CS(=N)(=O)c1ccc(C(=O)Nc2cc(-c3cccc(C(N)=O)c3)ccc2N)cc1` (stereo not drawn) [Compound 180, 3-[4-amino-3-[[4-(methylsulfonimidoyl)benzoyl]amino]phenyl]benzamide], for which the results for the IC50 at Recombinant HDAC1 and against HDAC3/NCor2 were under 100 nM and over 2000 nM, respectively.
Take `Cc1ncc(S(=N)(=O)c2ccc(C(=O)Nc3cc(-c4ccc(F)cc4)ccc3N)cc2)[nH]1` (stereo not drawn) [Compound 217, N-[2-amino-5-(4-fluorophenyl)phenyl]-4-[(2-methyl-1H-imidazol-5-yl)sulfonimidoyl]benzamide]: the IC50 was under 100 nM at Recombinant HDAC1 and 100 to 500 nM at HDAC3/NCor2.
Taken in the same sequence, the figures for `N=S(=O)(c1ccc(C(=O)Nc2cc(-c3ccc(F)cc3)ccc2N)cc1)c1ccc(F)c(F)c1` (stereo not drawn) [Compound 221, N-[2-amino-5-(4-fluorophenyl)phenyl]-4-[(3,4-difluorophenyl)sulfonimidoyl]benzamide] were under 100 nM and 500 to 2000 nM.
The matching figures for `CS(=N)(=O)c1ccc(C(=O)Nc2cc(-c3ccncc3)ccc2N)cc1` (stereo not drawn) [Compound 108, N-[2-amino-5-(4-pyridyl)phenyl]-4-(methylsulfonimidoyl)benzamide]: under 100 nM and over 2000 nM.
Taken in the same sequence, the figures for `CS(=N)(=O)c1coc2cc(C(=O)Nc3cc(-c4ccc(F)cc4)ccc3N)ccc12` (stereo not drawn) [Compound 258, N-[2-amino-5-(4-fluorophenyl)phenyl]-3-(methylsulfonimidoyl)benzofuran-6-carboxamide] were under 100 nM and 500 to 2000 nM.
Consider `CS(=O)(=NC1CC1)c1ccc2oc(C(=O)Nc3cc(-c4ccc(F)cc4)ccc3N)cc2c1` (stereo not drawn) [Compound 230, N-[2-amino-5-(4-fluorophenyl)phenyl]-5-(N-cyclopropyl-S-methyl-sulfonimidoyl)benzofuran-2-carboxamide], for which the IC50 at Recombinant HDAC1 was under 100 nM; on HDAC3/NCor2 it was 500 to 2000 nM.
The matching figures for `Nc1ccc(-c2ccc(F)cc2)cc1NC(=O)c1ccc([S@]2(=O)=NCCC2)cc1` (stereo in doubt) [Compound 184, N-[2-amino-5-(4-fluorophenyl)phenyl]-4-[rel-(1S)-1-oxo-4,5-dihydro-3H-isothiazol-1-yl]benzamide]: under 100 nM and 500 to 2000 nM.
Taken in the same sequence, the figures for `N#Cc1ccc(S(=N)(=O)c2ccc(C(=O)Nc3cc(-c4ccc(F)cc4)ccc3N)cc2)cn1` (stereo not drawn) [Compound 239, N-[2-amino-5-(4-fluorophenyl)phenyl]-4-[(6-cyano-3-pyridyl)sulfonimidoyl]benzamide] were under 100 nM and 500 to 2000 nM.
Consider `N=S(=O)(c1ccc(C(=O)Nc2cc(-c3ccc(F)cc3)ccc2N)cc1)c1ncc[nH]1` (stereo not drawn) [Compound 257, N-[2-amino-5-(4-fluorophenyl)phenyl]-4-(1H-imidazol-2-ylsulfonimidoyl)benzamide], for which the IC50 at Recombinant HDAC1 is under 100 nM; on HDAC3/NCor2 it was 100 to 500 nM.
With `CS(=N)(=O)c1cc2ccc(C(=O)Nc3cc(-c4ccc(F)cc4)ccc3N)cc2s1` (stereo not drawn) [Compound 236, N-[2-amino-5-(4-fluorophenyl)phenyl]-2-(methylsulfonimidoyl)benzothiophene-6-carboxamide], the figures for the IC50 at Recombinant HDAC1 and against HDAC3/NCor2 were under 100 nM and 100 to 500 nM, respectively.
The matching figures for `Cc1ccc(S(=N)(=O)c2ccc(C(=O)Nc3cc(-c4ccc(F)cc4)ccc3N)cc2)nc1` (stereo not drawn) [Compound 231, N-[2-amino-5-(4-fluorophenyl)phenyl]-4-[(5-methyl-2-pyridyl)sulfonimidoyl]benzamide]: under 100 nM and 500 to 2000 nM.
